Data from patent US10500222B2, “Compositions and methods relating to treatment of infection” (Wayne State University, priority 2015, dated 2019).
“Also recorded” adds a separate entry of the source.

Assays:
[1] = tested on: P. aeruginosa KEI 1025 infected cornea; test: Ocular response to bacterial infection (clinical score, slit lamp), KEI 1025 keratitis; assay type: in vivo, C57BL/6 (B6) mice; conditions: for opacity, slit lamp photographs / clinical scores: vs PBS
Description: P. aeruginosa strains, KEI 1025, a non-cytotoxic clinical isolate strain expressing exoT and exoS, and not expressing exoU, described in Estrellas P S, Jr., et al., Curr Eye Res. 2000; 20:157-165 (obtained from Kresge Eye Institute, Detroit, Mich.), and a cytotoxic strain, 19660, expressing exoU, described in Finck-Barbancon V, et al., Mol Microbiol. 1997; 25:547-557; and Fleiszig S M, et al., Infect Immun. 1997; 65:579-586 (obtained from American Type Culture Collection, ATCC, Manassas, Va.), were grown in peptone tryptic soy broth (PTSB) medium in a rotary shaker water bath at 37° C. and 150 rpm for 18 h to an optical density (measured at 540 nm) between 1.3-1.8. Bacterial cultures were pelleted by centrifugation at 5,500 g for 10 min. Pellets were washed once with sterile saline, re-centrifuged, re-suspended and diluted in sterile saline. Anesthetized (using anhydrous ethyl ether) mice were placed beneath a stereoscopic microscope at 40× magnification. The left cornea was scarified with three 1-mm incisions using a sterile 25^5/8 gauge needle. The wounded corneal surface was topically treated with 5 μl containing 1×10^7 CFU/μl (KEI 1025) or 1×10^6 CFU/μl (ATCC strain 19660) of the P. aeruginosa suspension.
An established corneal disease grading scale, described in detail in Hazlett L D, et al., Invest Ophthalmol Vis Sci. 1987; 28:1978-1985, was used to assign a clinical score value to each infected eye at 1, 3 and 5 days post infection (p.i.). Clinical scores were designated as: 0=clear or slight opacity, partially or fully covering the pupil; +1=slight opacity, fully covering the anterior segment; +2=dense opacity, partially or fully covering the pupil; +3=dense opacity, covering the entire anterior segment; and +4=corneal perforation or phthisis. Clinical scores were used to statistically compare disease severity and were accompanied by photographs using a slit lamp (5 days p.i.) to confirm and illustrate the response.
(§1) The left eyes of B6 mice (n=5/group/time) were injected with 5 μl of 2 μg/μl glycyrrhizin (GLY) (Sigma-Aldrich, St. Louis, Mo.) or PBS (control) subconjunctivally, one day before infection. Similar treatment was done using carbenoxolone (CBX) (Sigma-Aldrich, St. Louis, Mo.). All mice were injected intraperitoneally (IP) at 1 and 3 days p.i. with 100 μl of GLY (2 μg/μl) or CBX (1 μg/μl). PBS served as control for all these experiments. In a separate similar experiment mice were treated one day before infection with GLY subconjunctivally and injected intraperitoneally (i.p.) with GLY plus recombinant (r) HMGB1 (1 μg/100 μl) or GLY plus PBS. IP injections were similarly given at 1 and 3 days p.i. In an additional experiment, KEI 1025 infected B6 mice were treated with 5 μl of 2 μg/μl GLY subconjunctivally at 6 hours p.i. and injected intraperitoneally at 1 and 3 days p.i. with 100 μl of GLY (2 μg/μl).

[2] = tested on: protein levels in P. aeruginosa KEI 1025 infected cornea; test: ELISA of corneal proteins, KEI 1025 infection; assay type: in vivo, C57BL/6 (B6) mice; conditions: vs PBS
Procedure: as §1
KEI 1025 or ATCC strain 19660 infected GLY or PBS treated, B6 mice (n=5/group/time) were sacrificed at 3 and 5 days p.i. and normal and infected corneas harvested. To quantify IL-1β and CXCL2 proteins, individual corneas were homogenized in 1 ml of 50 mM potassium phosphate buffer (pH 6.0) containing 0.5% HTAB (hexadecyltrimethylammonium bromide, Sigma). To quantify HMGB1, cathelicidin-related antimicrobial peptide (CRAMP), mouse beta defensin 2 (mBD2) and mouse beta defensin 3 (mBD3) protein levels, individual corneas were homogenized in 500 μl of PBS containing 0.1% Tween 20 (Sigma) and protease inhibitors (Roche, Indianapolis, Ind.). Corneal homogenates were centrifuged at 12,000 g for 10 min. A 50 μl aliquot of each supernatant was assayed in duplicate to quantify IL-1β, CXCL2, HMGB1 and mBD2 proteins. A 100 μl aliquot of CRAMP and mBD3 supernatant was assayed in duplicate to quantify corresponding protein levels. Undiluted supernatant aliquots were used to quantify all proteins except CXCL2 (1:2 dilution) and HMGB1 (1:5 dilution). An HMGB1 ELISA kit was purchased from Chondrex Inc., Redmond, Wash. CRAMP, mBD2 and mBD3 ELISA kits were purchased from MyBioSource, Inc., San Diego, Calif. All other ELISA kits were purchased from R&D Systems, Minneapolis, Minn. Assays were run following the manufacturer's instructions. Sensitivities of the assays were: 2.31 […] (mBD3).

[3] = subconj. 1 day before infection + IP 1 and 3 days p.i., 5 days p.i.
[4] = KEI 1025, pretreatment subconj. + IP, 3 days p.i.
[5] = KEI 1025, pretreatment subconj. + IP, 5 days p.i.

Question: For `CC1(C)[C@@H](O[C@H]2O[C@H](C(=O)O)[C@@H](O)[C@H](O)[C@H]2O[C@@H]2O[C@H](C(=O)O)[C@@H](O)[C@H](O)[C@H]2O)CC[C@]2(C)[C@H]3C(=O)C=C4[C@@H]5C[C@@](C)(C(=O)O)CC[C@]5(C)CC[C@@]4(C)[C@]3(C)CC[C@@H]12` [GLY, glycyrrhizin], which “opacity, slit lamp photographs” value ([1]; post treatment: subconj. 6 hours p.i. + IP 1 and 3 days p.i.) is on record?
Answer: Its value is “decreased opacity”.

Question: And the clinical scores ([1]; post treatment: subconj. 6 hours p.i. + IP 1 and 3 days p.i., 1 day p.i.)?
Answer: The clinical scores was “seen only at 3 and 5 days p.i”.

Question: And the clinical scores ([1]; post treatment: subconj. 6 hours p.i. + IP 1 and 3 days p.i., 3 days p.i.)?
Answer: Its clinical scores is “Reduced clinical scores”.

Question: And the clinical scores ([1]; post treatment: subconj. 6 hours p.i. + IP 1 and 3 days p.i., 5 days p.i.)?
Answer: Its clinical scores is “Reduced clinical scores”.

Question: What about the “infiltrate, slit lamp photographs” value ([1]; pretreatment, 5 days p.i., GLY compared with CBX treated eyes) of the same compound?
Answer: Its value is “less infiltrate”.

Question: What about the clinical scores ([1]; subconj. 1 day before infection + IP 1 and 3 days p.i., 1 day p.i.) of the same compound?
Answer: Its clinical scores is “significantly less corneal disease with lower clinical scores; also recorded: reduced significantly”.

Question: What about the clinical scores ([1]; subconj. 1 day before infection + IP 1 and 3 days p.i., 3 days p.i.) of the same compound?
Answer: The clinical scores was “significantly less corneal disease with lower clinical scores; also recorded: reduced significantly”.

Question: What about the clinical scores [1, 3] of the same compound?
Answer: Its clinical scores is “significantly less corneal disease with lower clinical scores; also recorded: reduced significantly”.

Question: What about the “opacity, slit lamp photographs” value [1, 3] of the same compound?
Answer: Its value is “reduced opacity”.

Question: And the CXCL2 protein expression [2, 4]?
Answer: Its CXCL2 protein expression is “significantly decreased”.

Question: What about the HMGB1 protein [2, 4] of the same compound?
Answer: Its HMGB1 protein is “not 3 days p.i”.

Question: What about the IL-1 protein [2, 4] of the same compound?
Answer: Its IL-1 protein is “no different from control values”.

Question: And the “expression of CRAMP (protein)” value [2, 4]?
Answer: Its value is “upregulated the expression of CRAMP significantly”.

Question: What about the mBD2 protein [2, 4] of the same compound?
Answer: Its mBD2 protein is “significantly upregulated”.

Question: And the mBD3 protein [2, 4]?
Answer: Its mBD3 protein is “did not differ significantly”.

Question: What about the CXCL2 protein expression [2, 5] of the same compound?
Answer: The CXCL2 protein expression was “significantly decreased”.

Question: What about the HMGB1 protein [2, 5] of the same compound?
Answer: The HMGB1 protein was “reduced HMGB1 protein significantly”.

Question: What about the IL-1 protein [2, 5] of the same compound?
Answer: Its IL-1 protein is “significantly decreased”.

Question: And the “expression of CRAMP (protein)” value [2, 5]?
Answer: Its value is “no difference between groups”.

Question: What about the mBD2 protein [2, 5] of the same compound?
Answer: Its mBD2 protein is “significantly upregulated”.

Question: What about the mBD3 protein [2, 5] of the same compound?
Answer: Its mBD3 protein is “did not differ significantly”.

Question: And the HMGB1 protein ([2]; normal cornea)?
Answer: The HMGB1 protein was “did not differ”.

Question: What about the mBD3 protein ([2]; normal cornea) of the same compound?
Answer: Its mBD3 protein is “did not differ significantly”.

Question: What about the mBD2 protein ([2]; normal, contralateral uninfected eye) of the same compound?
Answer: Its mBD2 protein is “higher”.

Question: And the “expression of CRAMP (protein)” value ([2]; normal, uninfected cornea)?
Answer: The value was “upregulated the expression of CRAMP significantly”.
